Values joined by “and” are separate entries in the source; they are usually repeats but may differ in a detail not shown here. Equal values may be shown once. Toxic doses and inconclusive results are not listed.
System: CD2F1 mice, L1210 leukemia ip, survival T/C
Experiment: NCI In Vivo Anticancer Drug Screen. Data for tumor model L1210 Leukemia (intraperitoneal) in CD2F1 (CDF1) mice
Settings: higher = longer survival
In short: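 Mice carrying a transplanted tumor received test compound or vehicle alone. The value is the measurement in the treated group divided by that in the vehicle-treated control group.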

With `Cc1cn(C(C=O)OC(C=O)CO)c(=O)[nH]c1=O` (stereo not given) the T/C (endpoint: mean survival time, dose: 10.0 mg/kg/injection, schedule: Q01DX005 (ip), vehicle: water) was 107 % of control, the T/C (endpoint: mean survival time, dose: 10.0 mg/kg/injection, schedule: Q01DX009 (ip), vehicle: water) was 104 % of control and the T/C (endpoint: mean survival time, dose: 12.5 mg/kg/injection, schedule: Q01DX005 (ip), vehicle: water) was 104 % of control. For the same compound, the T/C (endpoint: mean survival time, dose: 20.0 mg/kg/injection, schedule: Q01DX005 (ip), vehicle: water) was 102 % of control, the T/C (endpoint: mean survival time, dose: 20.0 mg/kg/injection, schedule: Q01DX009 (ip), vehicle: water) was 107 % of control and the T/C (endpoint: mean survival time, dose: 25.0 mg/kg/injection, schedule: Q01DX005 (ip), vehicle: water) was 98 % of control. The T/C (endpoint: mean survival time, dose: 40.0 mg/kg/injection, schedule: Q01DX005 (ip), vehicle: water) was 112 % of control, the T/C (endpoint: mean survival time, dose: 40.0 mg/kg/injection, schedule: Q01DX009 (ip), vehicle: water) was 124 % of control and the T/C (endpoint: mean survival time, dose: 50.0 mg/kg/injection, schedule: Q01DX005 (ip), vehicle: water) was 104 % of control. The T/C (endpoint: mean survival time, dose: 80.0 mg/kg/injection, schedule: Q01DX009 (ip), vehicle: water) was 120 % of control, the T/C (endpoint: mean survival time, dose: 100.0 mg/kg/injection, schedule: Q01DX005 (ip), vehicle: water) was 104 % of control and the T/C (endpoint: mean survival time, dose: 160.0 mg/kg/injection, schedule: Q01DX009 (ip), vehicle: water) was 102 % of control. For the same compound, the T/C (endpoint: mean survival time, dose: 200.0 mg/kg/injection, schedule: Q01DX005 (ip), vehicle: water) was 109 % of control.
For `O=C(O)CCn1c(=O)[nH]c(=O)n(CCC(=O)O)c1=O`, the T/C (endpoint: mean survival time, dose: 100.0 mg/kg/injection, schedule: Q01DX009 (ip), vehicle: saline with Tween-80) was 96 % of control, the T/C (endpoint: mean survival time, dose: 100.0 mg/kg/injection, schedule: Q04DX003 (ip), vehicle: saline with Tween-80) was 113 % of control and the T/C (endpoint: mean survival time, dose: 200.0 mg/kg/injection, schedule: Q01DX009 (ip), vehicle: saline with Tween-80) was 100 % of control. The T/C (endpoint: mean survival time, dose: 200.0 mg/kg/injection, schedule: Q04DX003 (ip), vehicle: saline with Tween-80) was 101 % of control, the T/C (endpoint: mean survival time, dose: 400.0 mg/kg/injection, schedule: Q01DX009 (ip), vehicle: saline with Tween-80) was 97 % of control and the T/C (endpoint: mean survival time, dose: 400.0 mg/kg/injection, schedule: Q04DX003 (ip), vehicle: saline with Tween-80) was 98 % of control.
With `COc1cccc2c1C(=O)c1c(O)c3c(c(O)c1C2=O)C[C@@](O)(/C(C)=N/NC(=O)c1ccccc1)C[C@@H]3OC1CC(N)C(O)C(C)O1` (stereo not given in full) the T/C (endpoint: mean survival time, dose: 0.5 mg/kg/injection, schedule: Q04DX003 (ip), vehicle: water) was 91 % of control, the T/C (endpoint: mean survival time, dose: 0.65 mg/kg/injection, schedule: Q01DX009 (ip), vehicle: saline) was 117 % of control and the T/C (endpoint: mean survival time, dose: 1.0 mg/kg/injection, schedule: Q01DX009 (ip), vehicle: water) was 107 % of control. The T/C (endpoint: mean survival time, dose: 1.0 mg/kg/injection, schedule: Q04DX003 (ip), vehicle: water) was 91 % of control, the T/C (endpoint: mean survival time, dose: 1.08 mg/kg/injection, schedule: Q01DX009 (ip), vehicle: saline) was 120 % of control and the T/C (endpoint: mean survival time, dose: 2.0 mg/kg/injection, schedule: Q01DX009 (ip), vehicle: water) was 113 % of control. The T/C (endpoint: mean survival time, dose: 2.0 mg/kg/injection, schedule: Q04DX003 (ip), vehicle: water) was 96 % of control, the T/C (endpoint: mean survival time, dose: 3.0 mg/kg/injection, schedule: Q01DX009 (ip), vehicle: saline) was 150 % of control and the T/C (endpoint: mean survival time, dose: 3.0 mg/kg/injection, schedule: Q04DX003 (ip), vehicle: saline) was 160 % of control. The T/C (endpoint: mean survival time, dose: 4.0 mg/kg/injection, schedule: Q01DX009 (ip), vehicle: water) was 120 % of control, the T/C (endpoint: mean survival time, dose: 4.0 mg/kg/injection, schedule: Q04DX003 (ip), vehicle: water) was 105 % of control and the T/C (endpoint: mean survival time, dose: 5.0 mg/kg/injection, schedule: Q04DX003 (ip), vehicle: saline) was 163 % of control. For the same compound, the T/C (endpoint: mean survival time, dose: 8.0 mg/kg/injection, schedule: Q01DX009 (ip), vehicle: saline) was 110 % of control, the T/C (endpoint: mean survival time, dose: 8.0 mg/kg/injection, schedule: Q04DX003 (ip), vehicle: water) was 124 % of control and the T/C (endpoint: mean survival time, dose: 22.2 mg/kg/injection, schedule: Q04DX003 (ip), vehicle: saline) was 103 % of control. The T/C (endpoint: median survival time, dose: 0.13 mg/kg/injection, schedule: Q03HX008 (ip), vehicle: water) was 106 % of control, the T/C (endpoint: median survival time, dose: 0.13 mg/kg/injection, schedule: Q03HX016 (ip), vehicle: water) was 97 % of control and the T/C (endpoint: median survival time, dose: 0.13 mg/kg/injection, schedule: Q03HX024 (ip), vehicle: water) was 106 % of control. The T/C (endpoint: median survival time, dose: 0.25 mg/kg/injection, schedule: Q03HX008 (ip), vehicle: water) was 107 % of control, the T/C (endpoint: median survival time, dose: 0.25 mg/kg/injection, schedule: Q03HX016 (ip), vehicle: water) was 104 % of control and the T/C (endpoint: median survival time, dose: 0.25 mg/kg/injection, schedule: Q03HX024 (ip), vehicle: water) was 112 % of control. The T/C (endpoint: median survival time, dose: 0.5 mg/kg/injection, schedule: Q01DX009 (ip), vehicle: water) was 105 % of control, the T/C (endpoint: median survival time, dose: 0.5 mg/kg/injection, schedule: Q01DX009 (sc), vehicle: water) was 101 % of control and the T/C (endpoint: median survival time, dose: 0.5 mg/kg/injection, schedule: Q03HX008 (ip), vehicle: water) was 114 % of control. For the same compound, the T/C (endpoint: median survival time, dose: 0.5 mg/kg/injection, schedule: Q03HX016 (ip), vehicle: water) was 105 % of control, the T/C (endpoint: median survival time, dose: 0.5 mg/kg/injection, schedule: Q03HX024 (ip), vehicle: water) was 115 % of control and the T/C (endpoint: median survival time, dose: 0.5 mg/kg/injection, schedule: Q04DX003 (ip), vehicle: water) was 100 % of control. For the same compound, the T/C (endpoint: median survival time, dose: 1.0 mg/kg/injection, schedule: Q01DX001 (ip), vehicle: water) was 98 % of control, the T/C (endpoint: median survival time, dose: 1.0 mg/kg/injection, schedule: Q01DX001 (sc), vehicle: water) was 96 % of control and the T/C (endpoint: median survival time, dose: 1.0 mg/kg/injection, schedule: Q01DX009 (ip), vehicle: water) was 106 % of control. The T/C (endpoint: median survival time, dose: 1.0 mg/kg/injection, schedule: Q01DX009 (sc), vehicle: water) was 97 % of control, the T/C (endpoint: median survival time, dose: 1.0 mg/kg/injection, schedule: Q03HX008 (ip), vehicle: water) was 118 % of control and the T/C (endpoint: median survival time, dose: 1.0 mg/kg/injection, schedule: Q03HX016 (ip), vehicle: water) was 109 % of control. For the same compound, the T/C (endpoint: median survival time, dose: 1.0 mg/kg/injection, schedule: Q04DX003 (ip), vehicle: water) was 116 % of control and 111 % of control, the T/C (endpoint: median survival time, dose: 1.0 mg/kg/injection, schedule: Q08DX002 (ip), vehicle: water) was 107 % of control and the T/C (endpoint: median survival time, dose: 2.0 mg/kg/injection, schedule: Q01DX001 (ip), vehicle: water) was 105 % of control. The T/C (endpoint: median survival time, dose: 2.0 mg/kg/injection, schedule: Q01DX001 (sc), vehicle: water) was 102 % of control, the T/C (endpoint: median survival time, dose: 2.0 mg/kg/injection, schedule: Q01DX009 (ip), vehicle: water) was 116 % of control and the T/C (endpoint: median survival time, dose: 2.0 mg/kg/injection, schedule: Q01DX009 (sc), vehicle: water) was 97 % of control. For the same compound, the T/C (endpoint: median survival time, dose: 2.0 mg/kg/injection, schedule: Q04DX003 (ip), vehicle: water) was 103 % of control and 112 % of control, the T/C (endpoint: median survival time, dose: 2.0 mg/kg/injection, schedule: Q08DX002 (ip), vehicle: water) was 107 % of control and the T/C (endpoint: median survival time, dose: 4.0 mg/kg/injection, schedule: Q01DX001 (ip), vehicle: water) was 113 % of control. The T/C (endpoint: median survival time, dose: 4.0 mg/kg/injection, schedule: Q01DX001 (sc), vehicle: water) was 98 % of control, the T/C (endpoint: median survival time, dose: 4.0 mg/kg/injection, schedule: Q01DX009 (oral), vehicle: water) was 98 % of control and the T/C (endpoint: median survival time, dose: 4.0 mg/kg/injection, schedule: Q01DX009 (sc), vehicle: water) was 97 % of control. The T/C (endpoint: median survival time, dose: 4.0 mg/kg/injection, schedule: Q03HX016 (ip), vehicle: water) was 124 % of control, the T/C (endpoint: median survival time, dose: 4.0 mg/kg/injection, schedule: Q03HX024 (ip), vehicle: water) was 104 % of control and the T/C (endpoint: median survival time, dose: 4.0 mg/kg/injection, schedule: Q04DX003 (ip), vehicle: water) was 124 % of control. For the same compound, the T/C (endpoint: median survival time, dose: 4.0 mg/kg/injection, schedule: Q08DX002 (ip), vehicle: water) was 113 % of control, the T/C (endpoint: median survival time, dose: 8.0 mg/kg/injection, schedule: Q01DX001 (ip), vehicle: water) was 117 % of control and the T/C (endpoint: median survival time, dose: 8.0 mg/kg/injection, schedule: Q01DX001 (sc), vehicle: water) was 98 % of control. The T/C (endpoint: median survival time, dose: 8.0 mg/kg/injection, schedule: Q01DX009 (oral), vehicle: water) was 95 % of control, the T/C (endpoint: median survival time, dose: 8.0 mg/kg/injection, schedule: Q01DX009 (sc), vehicle: water) was 103 % of control and the T/C (endpoint: median survival time, dose: 8.0 mg/kg/injection, schedule: Q08DX002 (ip), vehicle: water) was 124 % of control. The T/C (endpoint: median survival time, dose: 16.0 mg/kg/injection, schedule: Q01DX001 (oral), vehicle: water) was 97 % of control, the T/C (endpoint: median survival time, dose: 16.0 mg/kg/injection, schedule: Q01DX001 (sc), vehicle: water) was 97 % of control and the T/C (endpoint: median survival time, dose: 16.0 mg/kg/injection, schedule: Q01DX009 (oral), vehicle: water) was 97 % of control. The T/C (endpoint: median survival time, dose: 16.0 mg/kg/injection, schedule: Q01DX009 (sc), vehicle: water) was 108 % of control, the T/C (endpoint: median survival time, dose: 16.0 mg/kg/injection, schedule: Q04DX003 (ip), vehicle: water) was 124 % of control and the T/C (endpoint: median survival time, dose: 32.0 mg/kg/injection, schedule: Q01DX001 (ip), vehicle: water) was 155 % of control. For the same compound, the T/C (endpoint: median survival time, dose: 32.0 mg/kg/injection, schedule: Q01DX001 (oral), vehicle: water) was 96 % of control, the T/C (endpoint: median survival time, dose: 32.0 mg/kg/injection, schedule: Q01DX001 (sc), vehicle: water) was 108 % of control and the T/C (endpoint: median survival time, dose: 32.0 mg/kg/injection, schedule: Q04DX003 (ip), vehicle: water) was 106 % of control. For the same compound, the T/C (endpoint: median survival time, dose: 64.0 mg/kg/injection, schedule: Q01DX001 (oral), vehicle: water) was 103 % of control, the T/C (endpoint: median survival time, dose: 128.0 mg/kg/injection, schedule: Q01DX001 (oral), vehicle: water) was 102 % of control and the T/C (endpoint: median survival time, dose: 256.0 mg/kg/injection, schedule: Q01DX001 (oral), vehicle: water) was 102 % of control.

From PubChem BioAssay AID256 (DTP/NCI, 2004)
